Test results: patent US11660324B2, “Copper complexes for treatment of neurodegenerative disorders” (ALS Therapy Development Institute, priority 2019, dated 2023)

What was measured:
male SOD1^G93A mice = test: Compound muscle action potential (CMAP), sciatic nerve / tibialis anterior; assay type: in vivo
Method: Compound muscle action potential (CMAP) was measured in mice given CuPTSM, CuATSM, or vehicle. CMAP is an electrophysiological technique that assess functional integrity of motor axons. The sciatic nerve is stimulated using implanted microelectrodes proving small electrical currents, and the response is measured in the innervated tibialis anterior (TA) muscle using an implanted recording electrode. It is known that the CMAP signal is decreased in the case of neuromuscular diseases, like in ALS patients, and recapitulated in the SOD1^G93A mouse model due to motor unit loss. In male SOD1^G93A mice, it has been shown that CMAP changes may happen as early as age day 50 and invariably worse after. In the present study, mice were treated once a day for 14 days with 2, 6, or 12 mg/kg CuPTSM; 10 or 30 mg/kg CuATSM; or vehicle (control). A total of 9 male mice were tested for each condition.
Prior to drug administration and assignment of mice to a cohort, CMAP was recorded for each mouse to establish a baseline measurement. Mice were then randomized into each treatment cohort, and administered the respective compounds and dosages of the cohort via oral gavage daily for two weeks. CMAP data was recorded at the end of the two weeks, and compared to the baseline measurements to calculate percent of baseline to illustrate the efficacy of CuPTSM and CuATSM compared to just vehicle.

SOD1^G93A mice [1] = test: Survival / lifespan; assay type: in vivo
Method: (§1) To test the efficacy of CuPTSM compared to CuATSM, mice were tested for delays in paresis and overall lifespan. Mice were given 6 mg/kg CuPTSM (n=32), 30 mg/kg CuATSM (n=32), and 100 mg/kg CuATSM (n=32) once a day to assess disease progression, and identify drug-induced changes in SOD1^G93A mice compared to their respective vehicle-only control mice. Neurological scoring to test the onset of paresis for each mouse was performed throughout the study according to the protocol as disclosed in Hatzipetros et al. (2015, J. Visualized Experiments. doi:10.3791/53257), incorporated herein by reference in its entirety. Briefly, mice were scored on a scale of NS 0 (pre-symptomatic) to NS 4 (humane end-point) based on a combination of a tail suspension test, a walking test, and a “righting reflex” test.
Survival for each cohort was also tracked throughout the study.
(§2) To compare the effects of CuPTSM administered at a much lower dose than CuATSM, mice were administered 6 mg/kg […] and survival and onset of paresis were measured as before.

[2] = Pharmacokinetics of CuPTSM compared to CuATSM (plasma and spinal cord) after single oral bolus; assay type: in vivo; settings: single oral bolus 30 mg/kg, SOD1^G93A mice
Method: The SOD1^G93A transgenic mouse model of ALS has been the most widely used animal model since the 1990s. The mouse was genetically engineered to overexpress a mutant form of the human Cu/Zn superoxide dismutase 1 (SOD1) gene harboring an ALS-associated glycine to alanine mutation at amino acid position 93 (G93A). Currently, the clinical strategy for the treatment of ALS with CuATSM is to escalate human dosing until ALS patients show plasma levels equivalent to those seen in mice given 30 mg/kg/day.
To compare the effects of CuPTSM to CuATSM in vivo, a single bolus of 30 mg/kg CuPTSM or 30 mg/kg CuATSM in an oral suspension of 0.5% methylcellulose/0.4% TWEEN-80/0.9% normal saline was administered to SOD1^G93A mice. Absorption half-life, elimination half-life, and Cmax measurements were taken from both plasma and spinal cord samples to measure drug exposure of CuPTSM or CuATSM for up to 6 hr after administration of drug.
Similar measurements were recorded for concentrations of CuPTSM and CuATSM in the spinal cord. […] As with the plasma concentrations, the spinal cord concentrations of CuATSM remained constant, even 6 hr after administration (FIG. 2B).

SOD1^G93A mice [3] = test: Onset of paresis by neurological scoring; assay type: in vivo
Method: as §1, §2

[4] = Pharmacokinetic simulation of repeated dosing, linear kinetics assumed; set-up: species or system mice; settings: simulation from single-dose PK parameters
Method: FIG. 3A is a simulation using PK parameters derived from the experiment of FIG. 1A and FIG. 1B, assuming linear pharmacokinetics. Plasma concentrations (ng/mL) in mice receiving 6 mg/kg CuPTSM, 30 mg/kg CuATSM, or 100 mg/kg CuATSM are depicted over time (hours). FIG. 3B is a simulation using PK parameters derived from the experiment of FIG. 1A and FIG. 1B, assuming linear pharmacokinetics. Spinal cord concentrations (ng/mL) in mice receiving 6 mg/kg CuPTSM, 30 mg/kg CuATSM, or 100 mg/kg CuATSM are depicted over time (hours).
Using the data and parameters derived from the above experiments using a single bolus of 6 mg/kg CuPTSM, 30 mg/kg CuATSM, or 100 mg/kg CuATSM, plasma and spinal cord concentrations were recorded on a plot over time (hours) to illustrate pharmacokinetic simulations over time. Linear kinetics were assumed. […] Similar results were obtained when concentrations were measured in spinal cord samples (FIG. 3B).

mice = test: Tolerability in mice (previous studies); assay type: in vivo; settings: 30 mg/kg

SMILES | survival compared to control (SOD1^G93A mice [1]; 6 mg/kg once a day) | absorption half-life ([2]; plasma) | elimination half-life ([2]; plasma) | plasma Cmax ([2]; plasma) | Cmax ([2]; spinal cord) | absorption half-life ([2]; spinal cord) | elimination half-life ([2]; spinal cord) | onset of paresis compared to control (SOD1^G93A mice [3]; 6 mg/kg once a day) | tolerability in mice (mice) | other results
CN=C([S-])N/N=C(C)/C(C)=N/NC([S-])=NC.[Cu+2] [CuATSM] | no significant difference in survival | 0.24 h | 13.7 h | 198 ng/mL | 2 ng/mL | 0.65 h | 13.8 h | no significant improvement in onset of paresis | well-tolerated | CMAP change from baseline compared to vehicle (male SOD1^G93A mice; 10 mg/kg oral gavage once a day for 14 days): no significant difference in CMAP measurements; CMAP change from baseline compared to vehicle (male SOD1^G93A mice; 30 mg/kg oral gavage once a day for 14 days): no significant difference in CMAP measurements; survival compared to control (SOD1^G93A mice [1]; 30 mg/kg once a day): increase in survival over the control counterparts; survival compared to control (SOD1^G93A mice [1]; 100 mg/kg once a day): increase in survival over the control counterparts; onset of paresis compared to control (SOD1^G93A mice [3]; 30 mg/kg once a day): delaying onset over the control; onset of paresis compared to control (SOD1^G93A mice [3]; 100 mg/kg once a day): delaying onset over the control; simulated plasma concentration before the next dose ([4]; 30 mg/kg): did not return to 0 ng/mL prior the next dose; simulated plasma concentration before the next dose ([4]; 100 mg/kg): did not return to 0 ng/mL prior the next dose
CN=C([S-])N/N=C/C(C)=N/NC([S-])=NC.[Cu+2] [CuPTSM, copper PTSM] | increase in survival over the control counterparts | 0.54 h | 2.44 h | 1565 ng/mL | 7.27 ng/mL | 1.0 h | 1.9 h | delaying onset over the control | toxic to mice | CMAP change from baseline compared to vehicle (male SOD1^G93A mice; 2 mg/kg oral gavage once a day for 14 days): significantly greater change from baseline; CMAP change from baseline compared to vehicle (male SOD1^G93A mice; 6 mg/kg oral gavage once a day for 14 days): significantly greater change from baseline; CMAP change from baseline compared to vehicle (male SOD1^G93A mice; 12 mg/kg oral gavage once a day for 14 days): significantly greater change from baseline; survival compared to CuATSM 30 and 100 mg/kg groups (SOD1^G93A mice [1]; 6 mg/kg once a day): markedly improved survival; delay of onset of paresis compared to CuATSM 30 and 100 mg/kg groups (each over its respective control) (SOD1^G93A mice [3]; 6 mg/kg once a day): significantly delayed onset of paresis over CuATSM; simulated plasma concentration before the next dose ([4]; 6 mg/kg): plasma levels returned to 0 ng/mL prior to the next dose
